Target: T1, Tie2 receptor (Homo sapiens, UniProt Q02763)
T1 construct: one can use natural cell lines or primary cells which are known to express the receptor of choice; endogenous in cells; host or cells: EA.hy926/B3 cells (HUVEC named as alternative)
Experiment: Cellular Tie2 autophosphorylation assay (Test (b))
Assay type: cell-based
Details: Ang1 ligand stimulated autophosphorylation of cellular Tie2 receptor, e.g. EA.hy926/B3 cells
Excerpt: b. Cellular Tie2 Autophosphorylation Assay
This assay is based on measuring the ability of compounds to inhibit autophosphorylation of the Tie2 receptor which normally leads to the production of “activated” receptor that in turn initiates the particular signal transduction pathways associated with the receptor function.
Autophosphorylation can be achieved by a number of means. It is known that expression of recombinant kinase domains in baculoviral systems can lead to the production of phosphorylated and activated receptor. […] In these cases the natural, external cell surface domain of the receptor has been replaced with that of a domain which is known to be readily dimerised via the addition of the appropriate ligand (e.g. TrkA-Tie2/NGF ligand (Marron, M. B., et al., 2000 Journal of Biological Chemistry: 275:39741-39746) or C-fms-Tie-1/CSF-1 ligand (Kontos, C. D., et al., 2002 Molecular and Cellular Biology: 22, 1704-1713). Thus when the chimaeric receptor expressed in a host cell line and the respective ligand is added, this induces autophosphorylation of the chimeric receptor's kinase domain. This approach has the advantage of often allowing a known (and often easily obtained) ligand to be used instead of having to identify and isolate the natural ligand for each receptor of interest. […]

T1 sequence (Q02763 23-1124): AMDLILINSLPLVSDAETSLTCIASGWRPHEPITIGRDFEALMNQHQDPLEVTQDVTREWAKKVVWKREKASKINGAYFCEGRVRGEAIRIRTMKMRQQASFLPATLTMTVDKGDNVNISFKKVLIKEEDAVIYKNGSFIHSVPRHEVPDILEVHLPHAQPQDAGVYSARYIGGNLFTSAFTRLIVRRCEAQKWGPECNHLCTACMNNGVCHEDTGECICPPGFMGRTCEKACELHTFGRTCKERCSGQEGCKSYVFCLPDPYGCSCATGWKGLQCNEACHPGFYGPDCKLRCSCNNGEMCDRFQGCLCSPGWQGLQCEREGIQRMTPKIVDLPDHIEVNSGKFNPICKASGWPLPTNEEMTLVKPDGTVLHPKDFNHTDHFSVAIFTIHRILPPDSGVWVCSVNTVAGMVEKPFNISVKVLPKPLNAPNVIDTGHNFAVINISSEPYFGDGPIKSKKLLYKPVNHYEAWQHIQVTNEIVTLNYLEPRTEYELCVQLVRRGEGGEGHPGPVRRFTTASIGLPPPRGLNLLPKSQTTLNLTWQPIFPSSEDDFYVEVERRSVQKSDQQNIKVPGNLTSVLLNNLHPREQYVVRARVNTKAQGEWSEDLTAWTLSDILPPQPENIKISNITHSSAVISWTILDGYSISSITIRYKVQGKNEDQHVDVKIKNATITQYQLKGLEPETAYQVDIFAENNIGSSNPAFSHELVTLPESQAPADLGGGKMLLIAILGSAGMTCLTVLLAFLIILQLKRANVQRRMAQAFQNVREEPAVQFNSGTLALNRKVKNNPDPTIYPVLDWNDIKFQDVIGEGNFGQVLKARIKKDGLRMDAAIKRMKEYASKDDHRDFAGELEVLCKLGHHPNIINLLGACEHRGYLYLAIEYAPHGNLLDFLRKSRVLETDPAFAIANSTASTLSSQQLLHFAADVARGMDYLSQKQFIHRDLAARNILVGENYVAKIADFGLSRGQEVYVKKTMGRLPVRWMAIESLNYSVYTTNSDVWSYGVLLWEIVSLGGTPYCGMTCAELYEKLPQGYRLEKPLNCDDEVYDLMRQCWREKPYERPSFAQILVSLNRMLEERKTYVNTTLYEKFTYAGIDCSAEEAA

Compound	IC50 [nM]
Cn1cnc(-c2ccccc2)c1-c1nc2c(N)ncnc2s1 [Example 2, 2-(1-Methyl-4-phenyl-1H-imidazol-5-yl)[1,3]thiazolo[5,4-d]pyrimidin-7-amine]	2700
CSc1ncnc2sc(-c3c(-c4ccccc4)ncn3C)cc12 [Example 7, 6-(1-Methyl-4-phenyl-1H-imidazol-5-yl)-4-(methylthio)thieno[2,3d]pyrimidine]	2200

Reference: US7427616B2, “Condensed pyridines and pyrimidines with tie2 (TEK) activity” (AstraZeneca AB, priority 2002, dated 2008)
